The source of these data is patent US20240018157A1, “CYCLIC COMPOUNDS AND METHODS OF USING SAME” (Schrödinger, Inc., priority 2019, published 2024).

The target of test [1] is T1, full-length MALT1 protein His-MALT1(1-824) (Homo sapiens (Human), UniProt Q9UDY8). Put plainly: MALT1 protease assay, Assay 2 (1 nM MALT1, Ac-LRSR-AMC substrate). The class given is biochemical. To be noted: 1 nM MALT1, 50 μM Ac-LRSR-AMC, 2 h pre-incubation, 8 hr incubation at RT. In a few lines: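 His-MALT1(1-824) from baculovirus-infected insect cells at 1 nM, preincubated 2 h at RT with compound (0.1% DMSO), then 50 μM Ac-LRSR-AMC in 50 mM Tris pH 7.5, 600 mM sodium citrate, 1 mM DTT, 1 mM EDTA, 0.05% BSA. Fluorescence (ex 355/em 460 nm) after 8 h at RT, normalized to enzyme and substrate-only controls. IC50 and Hill coefficient by non-linear regression.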
T1 sequence (Q9UDY8 whole entry): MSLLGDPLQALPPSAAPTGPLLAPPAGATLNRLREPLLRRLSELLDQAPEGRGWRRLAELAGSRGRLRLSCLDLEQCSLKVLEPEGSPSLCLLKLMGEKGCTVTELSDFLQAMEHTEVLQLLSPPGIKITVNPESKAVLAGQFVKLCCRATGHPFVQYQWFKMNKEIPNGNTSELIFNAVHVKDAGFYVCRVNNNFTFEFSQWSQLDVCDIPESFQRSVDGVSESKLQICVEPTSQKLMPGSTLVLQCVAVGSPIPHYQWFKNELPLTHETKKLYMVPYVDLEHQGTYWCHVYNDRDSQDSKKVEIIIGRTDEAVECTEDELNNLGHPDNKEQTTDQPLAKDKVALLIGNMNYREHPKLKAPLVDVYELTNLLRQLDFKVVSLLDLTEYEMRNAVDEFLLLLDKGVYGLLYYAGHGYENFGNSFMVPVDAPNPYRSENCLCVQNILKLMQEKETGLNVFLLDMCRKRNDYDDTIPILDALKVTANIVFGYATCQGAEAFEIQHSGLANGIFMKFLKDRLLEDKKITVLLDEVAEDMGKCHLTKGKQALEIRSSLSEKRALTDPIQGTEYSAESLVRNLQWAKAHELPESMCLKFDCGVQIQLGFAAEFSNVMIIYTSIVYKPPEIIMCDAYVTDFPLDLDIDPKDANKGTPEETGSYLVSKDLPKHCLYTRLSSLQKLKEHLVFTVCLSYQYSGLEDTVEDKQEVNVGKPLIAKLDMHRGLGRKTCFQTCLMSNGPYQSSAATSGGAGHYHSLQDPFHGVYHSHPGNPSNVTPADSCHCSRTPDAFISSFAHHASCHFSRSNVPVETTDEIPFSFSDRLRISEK

The test system of test [2] is IL10 secretion, OCI-LY10 cells. The test is described as follows: Human IL10 secretion assay, Assay 1 (HTRF). Format: cell-based. To be noted: 24 h incubation, read-out: IL-10 Secretion IC50 [nM] Assay 1. On the procedure: (§1) IL10 is one of the cytokines that are regulated via activation of NF-kB signaling. For example, in ABC-DLBCL cell lines, the activated NF-kB signaling leads to increased IL10 secretion. Inhibition of NF-kB signaling has been shown leading to decreased IL10 secretion.
Assay 1: OCI-LY10 cells were seeded in IMEM supplemented with 20% fetal bovine serum at 3×10^5 cells per well in 96-well round bottom plates (Corning 3799, Corning), treated with 100 nL of 3-fold serial compound dilutions, starting at 10 mM. The final vehicle concentration was 0.1% DMSO in all wells. After 24 h incubation, the cells were transferred to 96-PCR plates (Axygen: PCR-96-FLT-C) and centrifuged, then 16 μL of cell culture media was transferred to HTRF plates and IL10 levels were measured using human IL-10 Assay Kits (Cisbio) using HTRF format. The signals were transformed to percentage of remaining activity by using the high control (HC, median of signal from wells containing cells treated with DMSO) and low control (LC, median of signal from wells with no cells). IC50 values (nM) were determined using 4-parametric curve-fitting and Hill coefficient were obtained using Graph Pad Prism (Graph Pad software, Inc, USA) with non-linear regression analysis.

Test [3] relates to IL10 secretion, OCI-LY10 cells. Put plainly: Human IL10 secretion assay, Assay 2 (Meso Scale Discovery). Format: cell-based. To be noted: 24 h incubation, MSD, read-out: IL-10 Secretion IC50 [nM] Assay 2. As to the method: as §1
Assay 2: OCI-LY10 cells were seeded in IMEM supplemented with 20% fetal bovine serum at 4.8×10^5 cells per 160 μL per well in 96-well V-bottom cell culture plates (coming, 3894), treated with 120 nL of 3-fold serial compound dilutions, starting at 4 mM. The final vehicle concentration was 0.075% DMSO in all wells. After a 24 h incubation, human IL-10 pre-coated plates (Meso Scale Discovery) were washed 3 times with PBST, and 50 μL culture medium was aspirated into the MSD plate and incubated at 4° C. overnight. The supernatant was then discarded and the wells were washed 3 times with PBST. SULFO-TAG Anti-human IL-10 Antibody (50×) was diluted 50 fold according to the Meso Scale Protocol, then 25 μL of SULFO-TAG Anti-human IL-10 Antibody (1×) was added. After 2 h of incubation at RT, the supernatant was discarded and the well was washed 3 times with PBST. 2× read buffer was added and the signal was read on an MSD Sector S600. The effect of a particular compound on IL10 secretion is shown relative to the effect of DMSO; set as 100%. IC50 values (nM) were determined using 4-parametric curve-fitting.

Test [4] deals with T1, full-length MALT1 protein His-MALT1(1-824). The test is described as follows: MALT1 protease assay, Assay 1 (2 nM MALT1, Ac-LRSR-AMC substrate). The class given is biochemical. To be noted: 2 nM MALT1, 50 μM Ac-LRSR-AMC, 2 h pre-incubation, 8 hr incubation at RT. As to the method: MALT1 protease activity was assessed in an in vitro assay using a tetrapeptide as substrate and full-length MALT1 protein His-MALT1(1-824) purified from baculovirus-infected insect cells.
The final assay buffer includes 1 nM (Assay 2) or 2 nM (Assay 1) of MALT1 full-length protein, 50 μM Ac-LRSR-AMC substrate, 50 mM Tris pH 7.5, 600 mM Sodium Citrate, 1 mM DTT, 1 mM EDTA, and 0.05% BSA in 384-well plate format using black microtiter square well plates (Optiplate 384-F, Perkin Elmer).
Test compounds were dissolved in 100% DMSO at stock of 10 mM, with final DMSO concentration 0.1%. Test compounds were pre-incubated with MALT1 protein for 2 h at room temperature. Substrate was added after the pre-incubation and fluorescence signal was measured using Envision at excitation 355 nm and emission 460 nm after 8 hr incubation at RT. Increase in the assay signal was linear over this period and proportional with increase in the enzyme content.
The fluorescence units were transformed to percentage of remaining activity by using the high control (HC, median of fluorescence signal from wells containing MALT1 protein, substrate, and DMSO) and low control (LC, median of fluorescence signal from wells with substrate only) with the formula below: […]
IC50 and Hill coefficient were obtained using Graph Pad Prism (Graph Pad software, Inc, USA) with non-linear regression analysis.

On to `CN1CC[C@H](Oc2cc(NC(=O)N3C[C@@](C)(C(F)(F)F)c4c3cnc3cc(Cl)nn43)cc(C(F)F)n2)C1` [compound 111, (R)-2-chloro-N-(2-(difluoromethyl)-6-(((S)-1-methylpyrrolidin-3-yl)oxy)pyridin-4-yl)-8-methyl-8-(trifluoromethyl)-7,8-dihydro-6H-pyrazolo[1,5-a]pyrrolo[2,3-e]pyrimidine-6-carboxamide], for which the IC50 in test [1], in test [2] and in test [3] was 10 to 100 nM throughout.
On to `C[C@@]1(C(F)(F)F)CN(C(=O)Nc2cnc(-n3cncn3)c(Cl)c2)c2cnc3cc(F)nn3c21` [compound 202, (R)-N-(5-chloro-6-(1H-1,2,4-triazol-1-yl)pyridin-3-yl)-2-fluoro-8-methyl-8-(trifluoromethyl)-7,8-dihydro-6H-pyrazolo[1,5-a]pyrrolo[2,3-e]pyrimidine-6-carboxamide], for which the results for the IC50 in test [1], in test [2] and in test [3] were 10 to 100 nM, 100 to 1000 nM and 10 to 100 nM, respectively.
In the case of `CN(C)C(=O)c1ncc(NC(=O)N2C[C@@](C)(C(F)(F)F)c3c2cnc2cc(Cl)nn32)cc1Cl` [compound 123, (R)-2-chloro-N-(5-chloro-6-(dimethylcarbamoyl)pyridin-3-yl)-8-methyl-8-(trifluoromethyl)-7,8-dihydro-6H-pyrazolo[1,5-a]pyrrolo[2,3-e]pyrimidine-6-carboxamide], the IC50 in test [1], in test [2] and in test [3] was 10 to 100 nM in each case.
In test [4], `CNc1ncc(NC(=O)N2C[C@@](C)(C(F)(F)F)c3c2cnc2cc(Cl)nn32)cc1Cl` [compound 51, (R)-2-chloro-N-(5-chloro-6-(methylamino)pyridin-3-yl)-8-methyl-8-(trifluoromethyl)-7,8-dihydro-6H-pyrazolo[1,5-a]pyrrolo[2,3-e]pyrimidine-6-carboxamide] registered an IC50 of 10 to 100 nM.
Turning to `CC(O)c1cnnn1-c1ncc(NC(=O)N2C[C@@](C)(C(F)(F)F)c3c2cnc2cc(F)nn32)cc1C(F)F` (stereo partly drawn) [compound 188, (8R)-N-(5-(difluoromethyl)-6-(5-(1-hydroxyethyl)-1H-1,2,3-triazol-1-yl)pyridin-3-yl)-2-fluoro-8-methyl-8-(trifluoromethyl)-7,8-dihydro-6H-pyrazolo[1,5-a]pyrrolo[2,3-e]pyrimidine-6-carboxamide], the IC50 in test [1] is 10 to 100 nM; in test [2] it was 100 to 1000 nM; in test [3], 10 to 100 nM.
As for `C[C@@]1(C(F)(F)F)CN(C(=O)Nc2cnc(N3CCOC3=O)c(C(F)F)c2)c2cnc3cc(Cl)nn3c21` [compound 113, (R)-2-chloro-N-(5-(difluoromethyl)-6-(2-oxooxazolidin-3-yl)pyridin-3-yl)-8-methyl-8-(trifluoromethyl)-7,8-dihydro-6H-pyrazolo[1,5-a]pyrrolo[2,3-e]pyrimidine-6-carboxamide], the IC50 lay within 10 to 100 nM in test [1], 100 to 1000 nM in test [2] and 10 to 100 nM in test [3].
As for `Cc1cn2ncc3c(c2n1)C(C)(C)CN3C(=O)Nc1cnc(-n2nccn2)c(Cl)c1` [compound 134, N-(5-chloro-6-(2H-1,2,3-triazol-2-yl)pyridin-3-yl)-2,9,9-trimethyl-8,9-dihydro-7H-imidazo[1,2-b]pyrrolo[3,2-d]pyridazine-7-carboxamide], the IC50 in test [1] fell in the range of 10 to 100 nM; in test [2], 100 to 1000 nM; in test [3] it was 10 to 100 nM.
Consider `CCN(C)C(=O)c1ncc(NC(=O)N2C[C@@](C)(C(F)(F)F)c3c2cnc2cc(Cl)nn32)cc1C(F)F` [compound 149, (R)-2-chloro-N-(5-(difluoromethyl)-6-(ethyl(methyl)carbamoyl)pyridin-3-yl)-8-methyl-8-(trifluoromethyl)-7,8-dihydro-6H-pyrazolo[1,5-a]pyrrolo[2,3-e]pyrimidine-6-carboxamide], for which the IC50 in test [2] and in test [3] was 10 to 100 nM in each case.
As for `CN(C)C(=O)c1ncc(NC(=O)N2C[C@@](C)(C(F)(F)F)c3c2cnc2cc(Cl)nn32)cc1C(F)F` [compound 122, (R)-2-chloro-N-(5-(difluoromethyl)-6-(dimethylcarbamoyl)pyridin-3-yl)-8-methyl-8-(trifluoromethyl)-7,8-dihydro-6H-pyrazolo[1,5-a]pyrrolo[2,3-e]pyrimidine-6-carboxamide], the IC50 in test [2] and in test [3] was 10 to 100 nM each time.
As for `C[C@@]1(C(F)(F)F)CN(C(=O)Nc2cnc(OC(F)F)c(Cl)c2)c2cnc3cc(Cl)nn3c21` [compound 49, (R)-2-chloro-N-(5-chloro-6-(difluoromethoxy)pyridin-3-yl)-8-methyl-8-(trifluoromethyl)-7,8-dihydro-6H-pyrazolo[1,5-a]pyrrolo[2,3-e]pyrimidine-6-carboxamide], the IC50 in test [2] and in test [3] was 10 to 100 nM throughout.
As to `C[C@@]1(C(F)(F)F)CN(C(=O)Nc2cnc(-n3nccn3)c(C(F)(F)F)c2)c2cnc3cc(F)nn3c21` [compound 181, (R)-N-(6-(2H-1,2,3-triazol-2-yl)-5-(trifluoromethyl)pyridin-3-yl)-2-fluoro-8-methyl-8-(trifluoromethyl)-7,8-dihydro-6H-pyrazolo[1,5-a]pyrrolo[2,3-e]pyrimidine-6-carboxamide], the IC50 in test [2] and in test [3] was 10 to 100 nM in each case.
As for `C[C@@]1(C(F)(F)F)CN(C(=O)Nc2cc(OC(F)F)cc(O[C@H]3CCNC3)n2)c2cnc3cc(Cl)nn3c21` [compound 133, (R)-2-chloro-N-(4-(difluoromethoxy)-6-(((S)-pyrrolidin-3-yl)oxy)pyridin-2-yl)-8-methyl-8-(trifluoromethyl)-7,8-dihydro-6H-pyrazolo[1,5-a]pyrrolo[2,3-e]pyrimidine-6-carboxamide], the IC50 in test [1] was 10 to 100 nM; in test [2], 100 to 1000 nM; in test [3], 10 to 100 nM.
For `COc1cn(-c2ncc(NC(=O)N3C[C@@](C)(C(F)(F)F)c4c3cnc3cc(Cl)nn43)cc2Cl)nn1` [compound 95, (R)-2-chloro-N-(5-chloro-6-(4-methoxy-1H-1,2,3-triazol-1-yl)pyridin-3-yl)-8-methyl-8-(trifluoromethyl)-7,8-dihydro-6H-pyrazolo[1,5-a]pyrrolo[2,3-e]pyrimidine-6-carboxamide], the IC50 in test [1] and in test [3] was 10 to 100 nM in each case.
In the case of `C[C@@]1(C(F)(F)F)CN(C(=O)Nc2cc(C(F)(F)F)ncc2F)c2cnc3cc(Cl)nn3c21` [compound 96, (R)-2-chloro-N-(5-fluoro-2-(trifluoromethyl)pyridin-4-yl)-8-methyl-8-(trifluoromethyl)-7,8-dihydro-6H-pyrazolo[1,5-a]pyrrolo[2,3-e]pyrimidine-6-carboxamide], the IC50 in test [1] was in the range of 10 to 100 nM; in test [3], 100 to 1000 nM.
